# Laboratory results reported in patent US9981972B2, “N-hydroxy bicyclic hydantoin carbamates as tools for identification of serine hydrolase targets” (ABIDE THERAPEUTICS, INC., priority 2014, dated 2018).
# Key:
# Assay in all cases: Gel-based competitive ABPP in vitro, mouse brain membrane proteome
# Format in all cases: biochemical
# [1] = target: T1, LYPLA1 (Mus musculus, UniProt P97823); details: 20 μM, mouse brain (mem) proteome
# T1 construct: a complex proteome endogenously expressing LYPLA1/2 was incubated with test compound; from tissue; host or cells: mouse brain, membrane fraction
# T1 sequence (P97823 whole entry): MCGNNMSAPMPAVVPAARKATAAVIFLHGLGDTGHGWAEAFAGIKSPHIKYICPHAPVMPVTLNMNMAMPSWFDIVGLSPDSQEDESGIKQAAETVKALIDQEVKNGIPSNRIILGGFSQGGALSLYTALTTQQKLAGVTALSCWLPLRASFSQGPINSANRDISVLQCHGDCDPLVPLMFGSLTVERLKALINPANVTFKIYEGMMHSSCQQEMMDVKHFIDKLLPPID
# Experimental: (§1) Assay Overview: The purpose of this assay was to determine whether test compounds can inhibit LYPLA1 and LYPLA2 in a complex proteomic lysate and to assess anti-target inhibition using a competitive activity-based proteomic profiling (ABPP) assay. In this assay, a complex proteome endogenously expressing LYPLA1/2 was incubated with test compound followed by reaction with a rhodamine-conjugated fluorophosphonate (FP-Rh) serine-hydrolase specific activity-based probe. The reaction products were separated by SDS-PAGE and visualized in-gel using a flatbed fluorescence scanner. The percentage activity remaining was determined by measuring the integrated optical density of the bands. […] Percent inhibition was calculated relative to a DMSO (no compound) control.
# (§2) Protocol Summary: Mouse brain membrane proteome (50 μL reaction volume, 1 mg/mL in DPBS) was treated with 0.1-100 μM test compound (1 μL of a 50× stock in DMSO) for 30 minutes at 37° C. FP-Rh (1 μL of 50× stock in DMSO, Thermo #88318) was added to a final concentration of 2 μM. The reactions were incubated for 30 minutes at 25° C., quenched with 16 μL 4×SDS-PAGE loading buffer (reducing), separated by SDS-PAGE and visualized by in-gel fluorescent scanning. The percentage activity remaining was determined by measuring the integrated optical density of the bands relative to a DMSO-only (no compound) control. Assay Cutoff: Compounds with ≥50% inhibition of targets at 1 μM test compound concentration were considered active.
# (§3) N-Hydroxy bicyclic hydantoin carbamates (Compounds 1-20) listed in Table 1 were subjected to gel-based competitive ABPP screening to assess SH reactivity against more than 20 FP-sensitive SHs visible by 1D SDS-PAGE separation and fluorescent detection in the mouse brain proteome (see FIG. 1). […] Compound treatment ([…], 30 minutes) was followed by labeling with SH-specific ABPP probe FP-Rh (2 μM, 30 minutes), 1D-SDS-PAGE, and in-gel fluorescent visualization of FP-labeled proteins. Assignment of LYPLA1/2 bands was based on correlation of molecular weights, expression and inhibition profiles with LC-MS/MS data and recombinant enzyme expression. Proteins were listed as anti-targets if at least 50% inhibition was observed as quantified relative to the DMSO control.
# (§4) Compounds 1-20 were subjected to gel-based competitive ABPP profiling to assess potency and selectivity against several dozen FP-sensitive SHs in the mouse brain membrane proteome, which endogenously expresses LYPLA1 and LYPLA2, as well a diversity of potential SH anti-targets. Compounds were tested at 100 μM, 10 μM, 1 μM, and/or 0.1 μM compound concentration.
# [2] = target: T2, LYPLA2 (Mus musculus, UniProt Q9WTL7); details: 20 μM, mouse brain (mem) proteome
# T2 construct: a complex proteome endogenously expressing LYPLA1/2 was incubated with test compound; from tissue; host or cells: mouse brain, membrane fraction
# T2 sequence (Q9WTL7 whole entry): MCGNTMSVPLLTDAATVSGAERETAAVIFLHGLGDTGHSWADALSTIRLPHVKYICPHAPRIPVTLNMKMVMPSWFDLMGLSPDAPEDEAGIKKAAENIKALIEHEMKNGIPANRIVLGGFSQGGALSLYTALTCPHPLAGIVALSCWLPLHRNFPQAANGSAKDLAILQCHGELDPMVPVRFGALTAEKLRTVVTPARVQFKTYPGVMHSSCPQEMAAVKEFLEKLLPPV
# Experimental: as §1, §2, §3, §4
# [3] = target: T3, ABHD6 (Mus musculus, UniProt Q8R2Y0); details: for ABHD6 in vitro enzyme activity, % @ 20 μM: mouse brain (mem) proteome
# T3 construct: from tissue; host or cells: mouse brain, membrane fraction
# T3 sequence (Q8R2Y0 1-336): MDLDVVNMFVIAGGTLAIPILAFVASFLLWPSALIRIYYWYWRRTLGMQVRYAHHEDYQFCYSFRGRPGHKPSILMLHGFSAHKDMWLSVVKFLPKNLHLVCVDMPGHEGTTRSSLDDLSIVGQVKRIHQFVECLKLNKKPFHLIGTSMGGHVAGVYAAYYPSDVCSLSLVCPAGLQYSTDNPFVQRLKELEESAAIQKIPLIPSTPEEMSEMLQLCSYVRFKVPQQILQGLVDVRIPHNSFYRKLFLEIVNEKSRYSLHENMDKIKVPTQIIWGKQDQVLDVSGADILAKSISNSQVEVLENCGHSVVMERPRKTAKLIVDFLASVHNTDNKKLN
# Experimental: as §1, §2
# Assay Overview: The purpose of this assay was to determine IC50 values of powder samples of test compounds for enzyme of interest activity, and anti-targets in a complex proteomic lysate using a gel-based competitive ABPP assay. In this assay, a complex proteome was incubated with test compound followed by reaction with FP-Rh and SDS-PAGE analysis as described above.
# Protocol Summary: Soluble HeLa cell proteome (50 μL reaction volume, 1 mg/mL in DPBS) or mouse brain membrane proteome (50 μL reaction volume, 1 mg/mL in DPBS) was treated with varying concentrations of test compound (1 μL of a 50× stock in DMSO) for 30 minutes at 37° C. FP-Rh (1 μL of 50× stock in DMSO) was added to a final concentration of 2 μM. The reaction was incubated for 30 minutes at 25° C., quenched with 16 μL 4×SDS-PAGE loading buffer (reducing), separated by SDS-PAGE and visualized by in-gel fluorescent scanning. The percentage activity remaining was determined by measuring the integrated optical density of the enzymes of interest, and anti-target bands relative to a DMSO-only (no compound) control. IC50 values were determined from dose-response curves from three replicates at each inhibitor concentration: 1, 10, 100, 1000, 10000 nM and 0.01, 0.1, 1, 10, 100, 1000, 10000, 50000, and 100000 nM.
compound,measurement,setting,value
"COc1ccc(N2CCN(C(=O)ON3C(=O)C4CN(C(=O)OC(C)(C)C)CCN4C3=O)CC2)cc1 (stereo not shown) [Compound 21, tert-butyl 2-((4-(4-methoxyphenyl)piperazine-1-carbonyl)oxy)-1,3-dioxohexahydroimidazo[1,5-a]pyrazine-7(1H)-carboxylate]","LYPLA1 in vitro enzyme activity, % @ 20 μM",[1],0% @
same,"LYPLA2 in vitro enzyme activity, % @ 20 μM",[2],0% @
same,"ABHD6 in vitro enzyme activity, % @ 20 μM",[3],100% @
"COc1ccc(N2CCN(C(=O)ON3C(=O)C4CN(C)CCN4C3=O)CC2)cc1 (stereo not shown) [Compound 23, 7-methyl-1,3-dioxohexahydroimidazo[1,5-a]pyrazin-2(3H)-yl 4-(4-methoxyphenyl)piperazine-1-carboxylate]","LYPLA1 in vitro enzyme activity, % @ 20 μM",[1],0% @
same,"LYPLA2 in vitro enzyme activity, % @ 20 μM",[2],0% @
same,"ABHD6 in vitro enzyme activity, % @ 20 μM",[3],100% @
"COc1ccc(N2CCN(C(=O)ON3C(=O)NC(C(C)C)C3=O)CC2)cc1 (stereo not shown) [MJN193, 4-isopropyl-2,5-dioxoimidazolidin-1-yl 4-(4-methoxyphenyl)piperazine-1-carboxylate]","potency and selectivity for ABHD6, concentration-dependent profiling","[3]; mouse brain membrane SHs, FIG. 7B",good potency and selectivity
